{"source": "patent US20020192262A1", "about": "“1'-Acetoxychavicol acetate for tuberculosis treatment” (National Science and Technology Development Agency, priority 2001, published 2002)", "system": "30 clinical strains of M. tuberculosis isolated from patients in Thailand", "test": "Microplate Alamar Blue assay, clinical strains", "assay_type": "cell-based", "conditions": "Mycobacterium tuberculosis, including isoniazid and/or rifampin resistant strains, read-out: MICs against clinical strains of M. tuberculosis", "data": [{"smiles": "C=CC(OC(C)=O)c1ccc(OC(C)=O)cc1", "note": "(stereo not shown) [1′-acetoxychavicol acetate, 1′-Acetoxychavicol acetate]", "values": [{"measurement": "MIC", "value": "0.1 to 0.5", "unit": "µg/mL"}]}]}
